Results taken from ChEMBL document CHEMBL1201862, “PubChem BioAssay data set” (2004).
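All cell lines were grown in 96-well plates and treated with compound for 48 hours. GI50 is the concentration that inhibits growth by half.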 Active and inactive are the calls of the source. Rule as the data show it: active = GI50 up to about 1.1 µM and inactive = higher.

Tests used:
Test in all cases: NCI anticancer screen, dose series, 48 h
[1] = system: 786-0
[2] = system: A498
[3] = system: ACHN
[4] = system: CAKI-1
[5] = system: CCRF-CEM
[6] = system: DU-145
[7] = system: EKVX
[8] = system: HCC 2998
[9] = system: HCT-116
[10] = system: HCT-15
[11] = system: HL-60
[12] = system: HOP-62
[13] = system: HOP-92
[14] = system: HT-29
[15] = system: Hs-578T
[16] = system: IGROV-1
[17] = system: K562
[18] = system: KM12
[19] = system: LOX IMVI
[20] = system: M14
[21] = system: MCF7
[22] = system: MDA-MB-231
[23] = system: MDA-MB-435
[24] = system: MOLT-4
[25] = system: NCI-H226
[26] = system: NCI-H23
[27] = system: NCI-H460
[28] = system: NCI-H522
[29] = system: NCI/ADR-RES
[30] = system: OVCAR-3
[31] = system: OVCAR-4
[32] = system: OVCAR-5
[33] = system: OVCAR-8
[34] = system: PC-3
[35] = system: RPMI-8226
[36] = system: RXF 393
[37] = system: SF-268
[38] = system: SF-295
[39] = system: SF-539
[40] = system: SK-MEL-28
[41] = system: SK-MEL-2
[42] = system: SK-MEL-5
[43] = system: SK-OV-3
[44] = system: SR
[45] = system: SW-620
[46] = system: T47D
[47] = system: TK-10
[48] = system: U-251
[49] = system: UACC-257
[50] = system: UO-31

Measured: GI50

O=C1/C(=C/C=C/c2ccccc2)N=C(c2ccccc2)N1C1Nc2cc3c(cc2S1)NC(N1C(=O)/C(=C/C=C/c2ccccc2)N=C1c1ccccc1)S3 (stereo not given)
40.9 µM: [10]
active: [17] 0.311 µM | [24] 0.0117 µM | [44] < 0.01 µM
inactive: [1] 45.9 µM | [2] 15.5 µM | [3] 41.8 µM | [4] 73.6 µM | [5] 43.9 µM | [6] 38.8 µM | [7] > 100 µM | [8] 11.4 µM | [9] 28.1 µM | [11] 29.1 µM | [12] > 100 µM | [13] 22.2 µM | [14] 23.3 µM | [15] 10.5 µM | [16] 48 µM | [18] 21.7 µM | [19] 48.8 µM | [20] 26.4 µM | [21] 29.9 µM | [22] 31.6 µM | [23] 31.9 µM | [25] > 100 µM | [26] 66.5 µM | [27] 15.8 µM | [28] 10.3 µM | [29] 67.9 µM | [30] 46.9 µM | [31] 73.8 µM | [32] > 100 µM | [33] 44.4 µM | [34] 65.2 µM | [35] 13.2 µM | [36] 33.8 µM | [37] 9.68 µM | [38] 67.6 µM | [39] > 100 µM | [40] 38.2 µM | [41] > 100 µM | [42] 55 µM | [43] > 100 µM | [45] 22.4 µM | [46] 30.3 µM | [47] 86.7 µM | [48] 42.4 µM | [49] > 100 µM | [50] 28.1 µM
